Test results taken from ChEMBL document CHEMBL1201862, “PubChem BioAssay data set” (2004).
Calls of active or inactive are those of the source.

Experiments:
[1] = molecular target: T1, Neuropeptide Y receptor type 1 (Homo sapiens, UniProt P25929); format: functional;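 further: HEK293 cells with a CNG channel challenged with NPY then isoproterenol; potency as antagonist that reverses NPY suppression of cAMP signal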
T1 sequence (P25929 whole entry): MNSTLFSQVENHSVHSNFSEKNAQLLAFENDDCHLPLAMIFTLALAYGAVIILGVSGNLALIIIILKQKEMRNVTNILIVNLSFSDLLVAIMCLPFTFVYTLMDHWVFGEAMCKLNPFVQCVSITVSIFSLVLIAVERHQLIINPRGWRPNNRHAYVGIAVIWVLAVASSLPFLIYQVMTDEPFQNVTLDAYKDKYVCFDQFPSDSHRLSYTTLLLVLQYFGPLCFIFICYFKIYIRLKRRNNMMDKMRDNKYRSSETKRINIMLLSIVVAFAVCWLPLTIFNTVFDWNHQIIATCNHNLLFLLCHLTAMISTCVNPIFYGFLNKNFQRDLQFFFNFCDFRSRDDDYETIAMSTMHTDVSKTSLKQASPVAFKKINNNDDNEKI

[2] = molecular target: T2, Neuropeptide Y receptor type 2 (Homo sapiens, UniProt P49146); format: functional, cell-based;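 further: HEK293 cells expressing the receptor and a CNG channel; stimulus was NPY near EC95 followed by isoproterenol to raise cAMP; antagonist potency measured as restoring cAMP signal that NPY suppresses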
T2 sequence (P49146 whole entry): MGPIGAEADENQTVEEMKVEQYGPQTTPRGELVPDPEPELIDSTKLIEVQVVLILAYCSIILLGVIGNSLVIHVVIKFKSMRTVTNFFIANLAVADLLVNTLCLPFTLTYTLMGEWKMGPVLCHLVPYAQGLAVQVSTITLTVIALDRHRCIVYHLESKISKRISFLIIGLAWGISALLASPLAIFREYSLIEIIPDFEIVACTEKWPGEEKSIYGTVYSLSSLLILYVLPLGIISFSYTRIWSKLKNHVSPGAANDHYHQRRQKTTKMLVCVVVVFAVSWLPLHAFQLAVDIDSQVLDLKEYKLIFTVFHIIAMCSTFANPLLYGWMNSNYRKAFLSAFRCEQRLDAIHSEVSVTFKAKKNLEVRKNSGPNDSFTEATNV

[3] = system: Streptococcus sp. 'group A'; assay: growth inhibition of control SK(-) GAS strain, dose response, counter-screen for streptokinase expression inhibitor project, luminescence, kanamycin, BacTiterGlo, confirmation (AID 1900); format: functional, organism-based
[4] = molecular target: Oxytocin receptor (Homo sapiens, UniProt P30559); assay: Counterscreen for vasopressin 1 receptor (V1R) agonists: Fluorescence-based cell-based high throughput dose response assay for agonists of the Oxytocin Receptor (OXTR). [Related pubchem assays: 2435 (Primary screen (OXTR agonists in singlicate)), 434964 (Confirmation screen (V1R agonists in triplicate)), 434969 (Counterscreen (OXTR agonists in …; format: functional
Sequence of Oxytocin receptor (P30559 whole entry): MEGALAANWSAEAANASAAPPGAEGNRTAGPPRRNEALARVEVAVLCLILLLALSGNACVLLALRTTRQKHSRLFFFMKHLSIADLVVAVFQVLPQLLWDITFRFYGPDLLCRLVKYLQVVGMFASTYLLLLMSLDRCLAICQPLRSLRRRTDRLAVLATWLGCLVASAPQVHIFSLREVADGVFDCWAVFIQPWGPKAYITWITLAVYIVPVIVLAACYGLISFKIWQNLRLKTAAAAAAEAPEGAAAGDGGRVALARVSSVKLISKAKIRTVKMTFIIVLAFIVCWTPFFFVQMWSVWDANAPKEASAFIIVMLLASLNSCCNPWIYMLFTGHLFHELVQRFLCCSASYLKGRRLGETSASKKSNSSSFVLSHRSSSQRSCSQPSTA

[5] = molecular target: Vasopressin V1a receptor (Homo sapiens, UniProt P37288); assay: Fluorescence-based cell-based high throughput dose response screening assay for agonists of the vasopressin 1 receptor (V1R).; format: functional
[6] = system: Streptococcus; assay: Group A Streptococcus viability loss, dose response, counter-screen for streptokinase expression inhibitor project, luminescence, BacTiterGlo (AID 1915); format: functional, organism-based;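 further: potency for reduction of bacterial viability or growth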
[7] = molecular target: T3, Short transient receptor potential channel 4 (Mus musculus, UniProt Q9QUQ5); assay: mouse TRPC4 channel activators, dose response, cell-based, HEK293 TRPC4/mu-opioid, Fluo-4 calcium (AID 434937); format: functional
T3 sequence (Q9QUQ5 whole entry): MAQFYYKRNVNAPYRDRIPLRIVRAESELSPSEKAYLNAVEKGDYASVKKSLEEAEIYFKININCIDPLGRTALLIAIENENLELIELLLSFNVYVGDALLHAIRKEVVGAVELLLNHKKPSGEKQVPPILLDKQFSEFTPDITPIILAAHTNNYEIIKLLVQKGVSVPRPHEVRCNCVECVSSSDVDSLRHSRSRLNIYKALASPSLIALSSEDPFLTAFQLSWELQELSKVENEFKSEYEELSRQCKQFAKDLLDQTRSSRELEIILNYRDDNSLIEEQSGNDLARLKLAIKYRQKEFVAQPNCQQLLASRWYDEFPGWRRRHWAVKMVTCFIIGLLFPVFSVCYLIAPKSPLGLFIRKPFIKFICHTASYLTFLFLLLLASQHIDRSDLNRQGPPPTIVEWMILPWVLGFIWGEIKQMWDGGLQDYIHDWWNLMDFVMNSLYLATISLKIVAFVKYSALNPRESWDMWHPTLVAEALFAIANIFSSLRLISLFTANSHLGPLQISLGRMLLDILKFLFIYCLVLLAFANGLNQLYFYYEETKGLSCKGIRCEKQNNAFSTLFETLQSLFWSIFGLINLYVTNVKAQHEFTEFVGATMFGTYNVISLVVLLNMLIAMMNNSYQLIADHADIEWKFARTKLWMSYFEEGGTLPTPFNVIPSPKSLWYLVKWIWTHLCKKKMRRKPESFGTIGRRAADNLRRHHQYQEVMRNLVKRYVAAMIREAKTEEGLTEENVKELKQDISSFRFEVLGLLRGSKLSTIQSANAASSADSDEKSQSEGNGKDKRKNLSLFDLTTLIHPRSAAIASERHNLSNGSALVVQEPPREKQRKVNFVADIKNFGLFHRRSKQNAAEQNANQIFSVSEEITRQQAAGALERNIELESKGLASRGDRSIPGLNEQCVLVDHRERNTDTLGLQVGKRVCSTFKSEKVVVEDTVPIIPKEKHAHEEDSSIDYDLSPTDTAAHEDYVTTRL

[8] = molecular target: Peroxisome proliferator-activated receptor gamma/Nuclear receptor coactivator 2 (Homo sapiens, UniProt P37231); format: functional;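 further: agonist potency for raising coactivator recruitment to the receptor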
Sequence of Peroxisome proliferator-activated receptor gamma/Nuclear receptor coactivator 2 (P37231 whole entry): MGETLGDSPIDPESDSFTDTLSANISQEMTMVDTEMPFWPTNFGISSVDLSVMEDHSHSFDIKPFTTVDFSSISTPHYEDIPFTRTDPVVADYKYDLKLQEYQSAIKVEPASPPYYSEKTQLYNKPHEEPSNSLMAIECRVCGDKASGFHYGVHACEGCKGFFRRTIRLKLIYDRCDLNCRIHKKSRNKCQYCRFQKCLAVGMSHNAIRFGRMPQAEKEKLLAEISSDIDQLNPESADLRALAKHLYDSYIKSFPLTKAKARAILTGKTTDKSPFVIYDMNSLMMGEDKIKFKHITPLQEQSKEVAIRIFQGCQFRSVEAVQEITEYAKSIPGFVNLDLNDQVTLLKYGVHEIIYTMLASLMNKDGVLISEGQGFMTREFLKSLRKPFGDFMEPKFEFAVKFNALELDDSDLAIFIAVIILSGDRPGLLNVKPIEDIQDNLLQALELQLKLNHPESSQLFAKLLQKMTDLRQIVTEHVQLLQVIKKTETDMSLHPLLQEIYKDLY
Sequence of Peroxisome proliferator-activated receptor gamma/Nuclear receptor coactivator 2 (Q15596 whole entry, further chain): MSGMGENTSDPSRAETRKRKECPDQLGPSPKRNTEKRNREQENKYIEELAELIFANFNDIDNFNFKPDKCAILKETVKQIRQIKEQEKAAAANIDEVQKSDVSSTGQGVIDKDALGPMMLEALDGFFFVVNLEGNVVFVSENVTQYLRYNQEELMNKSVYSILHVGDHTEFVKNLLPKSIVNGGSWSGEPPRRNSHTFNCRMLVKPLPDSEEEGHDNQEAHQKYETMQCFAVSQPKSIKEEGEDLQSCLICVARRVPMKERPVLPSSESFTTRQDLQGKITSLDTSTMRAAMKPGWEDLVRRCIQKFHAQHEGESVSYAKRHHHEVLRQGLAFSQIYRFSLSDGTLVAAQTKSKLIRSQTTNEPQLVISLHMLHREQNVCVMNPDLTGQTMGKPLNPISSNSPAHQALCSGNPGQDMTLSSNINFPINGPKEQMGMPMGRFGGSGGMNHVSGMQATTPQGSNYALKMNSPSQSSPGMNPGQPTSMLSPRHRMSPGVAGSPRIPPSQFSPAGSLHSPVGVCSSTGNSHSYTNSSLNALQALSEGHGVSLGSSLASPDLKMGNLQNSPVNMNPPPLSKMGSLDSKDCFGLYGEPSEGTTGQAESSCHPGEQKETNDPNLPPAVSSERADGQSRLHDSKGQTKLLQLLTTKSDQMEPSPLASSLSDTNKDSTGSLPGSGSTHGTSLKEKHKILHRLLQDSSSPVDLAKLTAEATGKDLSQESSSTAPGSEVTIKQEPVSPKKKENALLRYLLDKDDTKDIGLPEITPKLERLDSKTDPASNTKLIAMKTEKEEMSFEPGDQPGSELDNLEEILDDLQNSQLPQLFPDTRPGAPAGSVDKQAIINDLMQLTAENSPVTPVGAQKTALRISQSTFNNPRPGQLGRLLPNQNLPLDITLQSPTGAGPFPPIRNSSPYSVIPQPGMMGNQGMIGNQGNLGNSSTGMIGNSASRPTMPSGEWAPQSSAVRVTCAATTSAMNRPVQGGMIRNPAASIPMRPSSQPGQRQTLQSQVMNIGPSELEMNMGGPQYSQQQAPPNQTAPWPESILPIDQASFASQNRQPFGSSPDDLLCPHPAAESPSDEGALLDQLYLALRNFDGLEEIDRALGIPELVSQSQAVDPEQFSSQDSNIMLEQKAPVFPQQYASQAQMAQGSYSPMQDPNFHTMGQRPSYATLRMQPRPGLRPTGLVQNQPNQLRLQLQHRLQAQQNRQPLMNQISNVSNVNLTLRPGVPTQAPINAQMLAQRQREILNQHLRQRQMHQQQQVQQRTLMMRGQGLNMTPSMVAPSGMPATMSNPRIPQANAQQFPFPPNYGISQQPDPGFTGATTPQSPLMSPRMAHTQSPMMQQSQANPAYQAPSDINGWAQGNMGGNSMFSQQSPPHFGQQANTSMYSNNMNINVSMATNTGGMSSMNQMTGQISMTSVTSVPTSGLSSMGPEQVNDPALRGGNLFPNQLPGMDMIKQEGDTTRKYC

[9] = molecular target: Peroxisome proliferator-activated receptor gamma/Nuclear receptor coactivator 1 (Homo sapiens, UniProt P37231); format: functional;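 further: agonist potency as compounds enhance coactivator SRC-1 recruitment to PPARgamma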
Sequence of Peroxisome proliferator-activated receptor gamma/Nuclear receptor coactivator 1 (P37231 whole entry): as the sequence (P37231 whole entry) above
Sequence of Peroxisome proliferator-activated receptor gamma/Nuclear receptor coactivator 1 (Q15788 whole entry, further chain): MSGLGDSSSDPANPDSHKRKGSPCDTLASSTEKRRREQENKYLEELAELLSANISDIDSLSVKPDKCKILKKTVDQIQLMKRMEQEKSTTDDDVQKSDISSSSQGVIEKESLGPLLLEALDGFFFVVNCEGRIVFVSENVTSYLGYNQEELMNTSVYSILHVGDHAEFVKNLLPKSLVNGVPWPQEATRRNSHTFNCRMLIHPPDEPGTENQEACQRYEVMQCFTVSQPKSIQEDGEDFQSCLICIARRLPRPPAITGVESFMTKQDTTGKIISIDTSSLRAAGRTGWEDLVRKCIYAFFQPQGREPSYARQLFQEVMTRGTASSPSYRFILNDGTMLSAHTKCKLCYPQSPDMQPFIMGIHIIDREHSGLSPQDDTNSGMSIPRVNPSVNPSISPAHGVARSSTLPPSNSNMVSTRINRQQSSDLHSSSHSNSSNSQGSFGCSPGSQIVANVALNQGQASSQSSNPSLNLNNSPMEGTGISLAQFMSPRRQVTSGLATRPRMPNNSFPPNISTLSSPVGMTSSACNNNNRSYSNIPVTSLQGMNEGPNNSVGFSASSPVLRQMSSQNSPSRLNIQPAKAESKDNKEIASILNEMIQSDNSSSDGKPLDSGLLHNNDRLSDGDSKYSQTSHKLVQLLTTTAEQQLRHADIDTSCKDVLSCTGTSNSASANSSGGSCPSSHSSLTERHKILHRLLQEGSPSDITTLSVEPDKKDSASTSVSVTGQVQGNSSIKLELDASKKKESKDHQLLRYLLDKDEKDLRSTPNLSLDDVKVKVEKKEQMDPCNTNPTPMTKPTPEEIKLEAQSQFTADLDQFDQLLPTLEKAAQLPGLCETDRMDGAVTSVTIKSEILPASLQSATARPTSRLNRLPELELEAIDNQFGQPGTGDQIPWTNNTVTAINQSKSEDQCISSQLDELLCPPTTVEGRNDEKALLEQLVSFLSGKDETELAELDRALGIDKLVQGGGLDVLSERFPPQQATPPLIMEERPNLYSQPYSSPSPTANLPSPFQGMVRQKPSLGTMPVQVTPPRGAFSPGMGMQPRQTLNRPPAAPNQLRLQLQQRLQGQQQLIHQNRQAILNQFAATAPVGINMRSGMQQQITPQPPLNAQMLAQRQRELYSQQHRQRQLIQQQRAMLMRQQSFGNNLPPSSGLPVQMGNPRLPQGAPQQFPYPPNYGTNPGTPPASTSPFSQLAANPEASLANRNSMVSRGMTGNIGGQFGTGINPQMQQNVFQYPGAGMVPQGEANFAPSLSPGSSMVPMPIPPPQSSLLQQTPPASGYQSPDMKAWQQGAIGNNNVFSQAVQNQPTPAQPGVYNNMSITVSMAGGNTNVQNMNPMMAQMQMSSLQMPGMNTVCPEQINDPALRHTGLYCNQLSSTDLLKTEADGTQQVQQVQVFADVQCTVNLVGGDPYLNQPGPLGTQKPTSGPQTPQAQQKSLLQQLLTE

[10] = molecular target: Peroxisome proliferator-activated receptor gamma/Nuclear receptor coactivator 3 (Homo sapiens, UniProt P37231); format: functional;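 further: agonist potency for raising coactivator recruitment to the receptor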
[11] = molecular target: Estrogen receptor (Homo sapiens, UniProt P03372);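 further: potency for inhibiting coactivator peptide recruitment to the receptor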
Sequence of Estrogen receptor (P03372 whole entry): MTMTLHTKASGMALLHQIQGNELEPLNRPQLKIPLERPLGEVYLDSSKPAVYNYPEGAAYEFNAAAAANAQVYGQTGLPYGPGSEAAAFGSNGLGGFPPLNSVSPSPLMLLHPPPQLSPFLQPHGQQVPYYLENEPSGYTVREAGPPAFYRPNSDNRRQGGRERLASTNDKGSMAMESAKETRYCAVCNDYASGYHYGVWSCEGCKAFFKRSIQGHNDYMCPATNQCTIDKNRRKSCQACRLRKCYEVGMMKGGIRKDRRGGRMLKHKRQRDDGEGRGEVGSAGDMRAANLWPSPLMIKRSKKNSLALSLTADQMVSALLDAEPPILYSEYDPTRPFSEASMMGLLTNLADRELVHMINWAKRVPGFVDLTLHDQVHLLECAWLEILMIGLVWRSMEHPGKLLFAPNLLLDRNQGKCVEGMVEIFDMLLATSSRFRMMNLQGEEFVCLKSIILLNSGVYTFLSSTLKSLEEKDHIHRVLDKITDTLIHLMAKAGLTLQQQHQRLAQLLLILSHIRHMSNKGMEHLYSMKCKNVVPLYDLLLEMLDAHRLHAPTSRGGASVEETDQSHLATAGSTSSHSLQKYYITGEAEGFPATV

[12] = molecular target: Estrogen receptor beta (Homo sapiens, UniProt Q92731);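 further: recombinant ER-beta bound to coactivator SRC1 peptide in presence of estradiol agonist; inhibitors block coactivator peptide binding and lower the FRET signal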

Compound | IC50 [1] | IC50 [2] | EC50 [8] | EC50 [9] | EC50 [10] | also measured
CCN(CC)CC(O)COc1ccc2c(c1)c(C(C)=O)c(C)n2-c1ccccc1 (configuration not stated) | 4.37 µM (active) | 6.95 µM (active) |  |  |  | 
O=c1c2cc(Br)ccc2nc(-c2cccc(Cl)c2)n1O |  |  |  |  |  | EC50 [3]: 1.13 µM (active); EC50 [4]: > 9.97 µM (active); EC50 [5]: 6.68 µM (active); EC50 [6]: 2.86 µM (active); EC50 [7]: 9.44 µM (active)
COc1ccc(CCN(Cc2nc(O)c3ccccc3n2)C(=O)c2ccco2)cc1OC |  |  | > 79.4 µM (not active) | > 79.4 µM (not active) | > 79.4 µM (not active) | 
O=C(c1cc(-c2ccco2)on1)N1CCc2ccccc2C1 |  |  |  |  |  | IC50 [11]: 32.5 µM (not active); IC50 [12]: > 50 µM (not active)
COc1ccc(-c2cc(-c3cccs3)c(C#N)c(SCC(=O)NCc3ccccc3)n2)cc1 |  |  | 14.2 µM (not active) | 18.8 µM (not active) | 22.2 µM (not active) | 
CC(C)c1ccc(-c2nnn(Cc3nc4ccccc4s3)n2)cc1 | 5.68 µM (active) | 4.61 µM (active) |  |  |  | 
